We go through 30 molecules from ChEMBL document CHEMBL1156082, “Novel orally active morpholine N-arylsulfonamides gamma-secretase inhibitors with low CYP 3A4 liability” (Bioorg Med Chem Lett, 2009).

The nature of data set [1]: Inhibition of gamma-secretase assessed as reduction in membrane amyloid beta40 production.
The nature of data set [2]: Drug level in rat brain at 10 mg/kg, po. The class given is ADME, organism-based. Also noted: dose 10 mg/kg, route oral.
A short description of data set [3]: Inhibition of gamma-secretase assessed as reduction in cell amyloid beta40 production.
Data set [4] can be described thus: AUC (0 to 6 hrs) in rat blood at 10 mg/kg, po. The class given is ADME, organism-based. Also noted: time < 6 hr, dose 10 mg/kg, route oral.
In data set [5] the test system is Mus musculus. As to the kind of experiment: Reduction of amyloid beta40 level in TgCRND8 mouse plasma at 30 mg/kg, sc after 3 hrs. The class given is functional. On the set-up: scale not given: the % may be the effect or the level left. To be noted: route subcutaneous.
The nature of data set [6]: Ratio of IC50 for gamma-secretase-mediated notch processing to IC50 for gamma-secretase assessed as reduction in cell amyloid beta40 production.
Data set [7] in a line: Inhibition of gamma-secretase-mediated notch processing by whole cell assay.
For data set [8], the system named is Mus musculus. As to the kind of experiment: Reduction of amyloid beta40 level in TgCRND8 mouse brain drug dosed po once daily for 5 days. The class given is functional. The conditions noted are these: 120 h.
Data set [9] concerns Mus musculus. As to the kind of experiment: Reduction of amyloid beta40 level in TgCRND8 mouse plasma drug dosed po once daily for 5 days. The class given is functional. The conditions noted are these: 120 h.

As a reminder, the IC50 is the midpoint of a concentration-inhibition curve. Usually AUC stands for the area under the concentration-time curve, a measure of exposure. As to `CC(C)(C(=O)O)C1CCN(C(=O)OC2([C@H]3COC[C@@H](C4CC4)N3S(=O)(=O)c3ccc(Cl)cc3)CC2)CC1`, the IC50 in data set [1] turned out to be 30 nM. For the same molecule, the AUC in data set [2] was 703 ng·h/mL.
By AUC(0-t) is commonly meant exposure summed from dosing to a finite time, without extrapolation to infinity. For `NC(=O)CC1CCN(C(=O)OC2([C@H]3COC[C@@H](C4CC4)N3S(=O)(=O)c3ccc(Cl)cc3)CC2)CC1`, the IC50 in data set [1] was determined as 14 nM; in [3], 41 nM. In addition, the AUC(0-t) at 6 h in data set [4] is 35 ng·h/mL.
Turning to `O=C(OC1([C@H]2COC[C@@H](C3CC3)N2S(=O)(=O)c2ccc(Cl)cc2)CC1)N1CC[C@H](O)C1`, the half-maximal inhibitory concentration (IC50) in [1] is 27 nM.
`CN(C)CC(=O)N1C2CCC1CN(C(=O)OC1([C@H]3COC[C@@H](C4CC4)N3S(=O)(=O)c3ccc(Cl)cc3)CC1)C2`: the IC50 turned out to be 8.9 nM in data set [1] and 31 nM in data set [3]. In data set [4], this molecule had an AUC(0-t) at 6 h of 567 ng·h/mL.
`C[C@@H]1CN(C(=O)OC2([C@H]3COC[C@@H](C4CC4)N3S(=O)(=O)c3ccc(Cl)cc3)CC2)CCN1CCO`: in data set [1], the IC50 is 37 nM.
As to `O=C(OC1([C@H]2COC[C@@H](C3CC3)N2S(=O)(=O)c2ccc(Cl)cc2)CC1)N1CC2CCC(C1)N2`, the IC50 in data set [1] was found to be 7.1 nM; in [3], 25 nM. The Activity in [5] was -90%. For the same molecule, the exposure AUC(0-t) at 6 h in data set [4] was found to be 4360 ng·h/mL.
For the molecule `O=C(OC1([C@H]2COC[C@@H](C3CC3)N2S(=O)(=O)c2ccc(Cl)cc2)CC1)N1C2CCC1CN(CCO)C2`, the values for the IC50 in data set [1] and in data set [3] were 15 nM and 27 nM, respectively. Besides, the AUC(0-t) at 6 h in data set [4] is 1280 ng·h/mL.
On to `CC(=O)N1C2CCC1CN(C(=O)OC1([C@H]3CO[C@@H](C)[C@@H](C4CC4)N3S(=O)(=O)c3ccc(Cl)cc3)CC1)C2`, for which the 50% inhibitory concentration (IC50) in data set [1] worked out at 5.4 nM. In [4], this molecule displayed an AUC(0-t) at 6 h of 178 ng·h/mL.
As to `CC(=O)N1C2CCC1CN(C(=O)OC1([C@H]3COC[C@@H](C4CC4)N3S(=O)(=O)c3ccc(Cl)cc3)CC1)C2`, the IC50 stood at 15 nM in [1] and 25 nM in data set [3]. Also, in data set [4], the AUC(0-t) at 6 h came out at 871 ng·h/mL.
For the molecule `CN1C2CCC1CN(C(=O)OC1([C@H]3COC[C@@H](C4CC4)N3S(=O)(=O)c3ccc(Cl)cc3)CC1)C2`, the IC50 in data set [1] amounted to 4.6 nM; in data set [3], 20 nM. Moreover, the Activity in data set [5] is on record as -88%. The molecule also came in with an exposure AUC(0-t) at 6 h in [4] of 939 ng·h/mL.
For orientation: ED50 means the dose at which the effect has come halfway, by size or by number of responders. On to `O=C(OC1([C@H]2COC[C@@H](C3CC3)N2S(=O)(=O)c2ccc(Cl)cc2)CC1)N1CC2CCC(C1)N2CCO`, for which the Ratio IC50 in data set [6] turned out to be 13. The concentration for half-maximal inhibition (IC50) amounted to 7.9 nM in [1], 15 nM in data set [3] and 194 nM in data set [7]. For the same molecule, the Activity in [5] is listed as -93%. Also, the ED50 was determined as 100 mg/kg in [8] and 10 mg/kg in data set [9]. In data set [4], this molecule gave an AUC(0-t) at 6 h of 1920 ng·h/mL.
On to `CC(=O)N1C2CCC1CN(C(=O)OC1([C@H]3CO[C@H](C)[C@@H](C4CC4)N3S(=O)(=O)c3ccc(Cl)cc3)CC1)C2`, for which, in [1], the IC50 came out at 4 nM. The same molecule returned an AUC(0-t) at 6 h in data set [4] of 23 ng·h/mL.
For `C[C@@H]1CN(C(=O)OC2([C@H]3COC[C@@H](c4cc(F)cc(F)c4)N3S(=O)(=O)c3ccc(Cl)cc3)CC2)CCN1CCO`, the IC50 in data set [1] stood at 5.5 nM. Besides, in data set [5], the Activity is -87%.
Take `O=C(OC1([C@H]2COC[C@@H](C3CC3)N2S(=O)(=O)c2ccc(Cl)cc2)CC1)N1CC[C@H](OCCO)C1`: the IC50 worked out at 20 nM in data set [1] and 31 nM in data set [3]. In [4], this molecule had an AUC(0-t) at 6 h of 11 ng·h/mL.
As for `O=C(OC[C@H]1COC[C@@H](c2cc(F)cc(F)c2)N1S(=O)(=O)c1ccc(Cl)cc1)N1CCN(CCO)CC1`, the IC50 in data set [1] was 76 nM; in data set [3], 95 nM.
With `O=C(O)CC1CCN(C(=O)OC2([C@H]3COC[C@@H](C4CC4)N3S(=O)(=O)c3ccc(Cl)cc3)CC2)CC1`, the IC50 in [1] came to 24 nM. Moreover, the AUC in data set [2] is 2460 ng·h/mL.
`C[C@@H]1OC[C@H](C2(OC(=O)N3CC4CCC(C3)N4CCO)CC2)N(S(=O)(=O)c2ccc(Cl)cc2)[C@@H]1C1CC1`: in [1], the 50% inhibitory concentration (IC50) came to 1.5 nM.
Take `CC(C)(CO)N1CCN(C(=O)OC2([C@H]3COC[C@@H](C4CC4)N3S(=O)(=O)c3ccc(Cl)cc3)CC2)CC1`: the half-maximal inhibitory concentration (IC50) in [1] worked out at 9.5 nM; in data set [3], 9 nM. In [5], the Activity is reported as -78%. The exposure AUC(0-t) at 6 h in data set [4] amounted to 446 ng·h/mL.
On to `CCN1C2CCC1CN(C(=O)OC1([C@H]3COC[C@@H](C4CC4)N3S(=O)(=O)c3ccc(Cl)cc3)CC1)C2`, for which the half-maximal inhibitory concentration (IC50) in [1] was determined as 10 nM; in data set [3] it was 25 nM. The molecule also showed an AUC(0-t) at 6 h in data set [4] of 1100 ng·h/mL.
For `O=C(OC1([C@H]2COC[C@@H](C3CC3)N2S(=O)(=O)c2ccc(Cl)cc2)CC1)N1C2CCC1CNC2`, the concentration for half-maximal inhibition (IC50) in data set [1] amounted to 17 nM; in data set [3], 72 nM. The molecule further yielded an AUC(0-t) at 6 h in [4] of 4660 ng·h/mL.
Regarding `O=C(OC[C@H]1CCC[C@@H](c2cc(F)cc(F)c2)N1S(=O)(=O)c1ccc(Cl)cc1)N1CCN(CCO)CC1`, the figures for the IC50 in [1] and in data set [3] were 41 nM and 167 nM, respectively.
For `CC(C)(CO)N1CCN(C(=O)OC2([C@H]3COC[C@@H](c4cc(F)cc(F)c4)N3S(=O)(=O)c3ccc(Cl)cc3)CC2)CC1`, the IC50 in data set [1] was 1.4 nM. Moreover, in [5], the Activity is on record as -68%.
The corresponding values for `O=C(OC1([C@H]2COC[C@@H](c3cc(F)cc(F)c3)N2S(=O)(=O)c2ccc(Cl)cc2)CC1)N1CC[C@H](O)C1` are 12 nM and 21%.
In the case of `CN1CC2CCC(C1)N2C(=O)OC1([C@H]2COC[C@@H](C3CC3)N2S(=O)(=O)c2ccc(Cl)cc2)CC1`, the IC50 amounted to 2.4 nM in data set [1] and 17 nM in data set [3]. In addition, the AUC(0-t) at 6 h in data set [4] amounted to 2910 ng·h/mL.
Regarding `CC(=O)N1C2CCC1CN(C(=O)OC1([C@H]3COC(C)(C)[C@@H](C4CC4)N3S(=O)(=O)c3ccc(Cl)cc3)CC1)C2`, in [1], the IC50 came to 4.6 nM. In data set [4], this molecule returned an AUC(0-t) at 6 h of 6 ng·h/mL.
In the case of `O=C(OC1([C@H]2CCC[C@@H](c3cc(F)cc(F)c3)N2S(=O)(=O)c2ccc(Cl)cc2)CC1)N1CCN(CCO)CC1`, the IC50 in data set [3] worked out at 5 nM.
Turning to `O=C(OC1([C@H]2COC[C@@H](C3CC3)N2S(=O)(=O)c2ccc(Cl)cc2)CC1)N1CC[C@H](NS(=O)(=O)C(F)(F)F)C1`, the 50% inhibitory concentration (IC50) in data set [1] came out at 49 nM. In addition, the area under the curve AUC(0-t) at 6 h in data set [4] stood at 870 ng·h/mL.
For the molecule `CS(=O)(=O)N1C2CCC1CN(C(=O)OC1([C@H]3COC[C@@H](C4CC4)N3S(=O)(=O)c3ccc(Cl)cc3)CC1)C2`, in [1], the half-inhibitory concentration (IC50) was determined as 41 nM.
Turning to `CC1(C)OC[C@H](C2(OC(=O)N3CC4CCC(C3)N4CCO)CC2)N(S(=O)(=O)c2ccc(Cl)cc2)[C@@H]1C1CC1`, in [1], the IC50 amounted to 1.1 nM. The molecule further came in with an exposure AUC(0-t) at 6 h in data set [4] of 1370 ng·h/mL.
Regarding `C[C@H]1OC[C@H](C2(OC(=O)N3CC4CCC(C3)N4CCO)CC2)N(S(=O)(=O)c2ccc(Cl)cc2)[C@@H]1C1CC1`, the IC50 in [1] worked out at 0.9 nM.
